Reference: EP2873675A1, “Peptide-based peroxidase inhibitors and methods of using same” (The Medical College of Wisconsin, Inc., priority 2013, dated 2015)
“Also recorded” adds a separate entry of the source. Positions of bridges follow the written chain, without caps; N, C: chain ends. Non-standard residues stand in square brackets, D forms with d. Residues, ends and D or L forms follow the SMILES beside them. Chains are numbered I, II in the order given.

Assays:
MPO [1] = assay: MPO-catalyzed HOCl production (taurine/TMB assay); format: biochemical; conditions: for MPO-catalyzed HOCl production, dose-dependent effects: increasing concentrations
Protocol: (§1) MPO-mediated HOCl Production. MPO (20 nM) was incubated with H2O2 (50 µM), NaCl (150 mM), taurine (5 mM) and increasing concentrations of KYC in phosphate buffer (100 mM, pH 7.4) which also contained diethylene triamine pentaacetic acid (DTPA, 100 µM) to prevent non-specific, divalent metal cation oxidation for 30 min. Reactions were halted by addition of catalase. Chlorotaurine was quantified using the 3,3-,5,5-tetramethylbenzidine (TMB) assay. Briefly, 400 µL of reaction solution was mixed with 100 µL of 2 mM TMB, 100 µM NaI containing 10% dimethylformamide (DMF) in 400 mM acetate buffer (pH 5.4). After 5 min, absorbance (650 nm) was recorded on a UV/Vis spectrophotometer (Agilent Model 8453).
(§2) MPO-catalyzed HOCl Production: MPO (20 nM) was incubated with H2O2 (50 µM), NaCl (150 mM), taurine (5 mM) and increasing concentrations of KYC in a phosphate buffer (100 mM, pH 7.4) containing diethylene triamine pentaacetic acid (DTPA, 100 µM) to prevent non-specific, divalent metal cation oxidation for 30 min. Reactions were halted by addition of catalase (2,000 units/mL). Chlorotaurine was quantified using the TMB assay (66). Briefly, 400 µL of reaction solution was mixed with 100 µL of 2 mM TMB, 100 µM NaI containing 10% dimethylformamide (DMF) in 400 mM acetate buffer (pH 5.4). After 5 min, absorbance (650 nm) was recorded on a UV/Vis spectrophotometer (Agilent Model 8453).

MPO [2] = molecular target: T1, MPO (Homo sapiens, UniProt P05164); assay: MPO-mediated LDL oxidation (conjugated diene formation, absorbance at 234 nm); format: biochemical; conditions: 25 µM; for MPO/H2O2/nitrite-mediated LDL oxidation: H2O2 100 µM, NaNO2 100 µM, MPO 20 nM; for MPO/H2O2-mediated LDL oxidation: in the absence of nitrite
T1 construct: purchased Lee Biosolutions (St. Louis, MO)
T1 sequence (P05164 49-745): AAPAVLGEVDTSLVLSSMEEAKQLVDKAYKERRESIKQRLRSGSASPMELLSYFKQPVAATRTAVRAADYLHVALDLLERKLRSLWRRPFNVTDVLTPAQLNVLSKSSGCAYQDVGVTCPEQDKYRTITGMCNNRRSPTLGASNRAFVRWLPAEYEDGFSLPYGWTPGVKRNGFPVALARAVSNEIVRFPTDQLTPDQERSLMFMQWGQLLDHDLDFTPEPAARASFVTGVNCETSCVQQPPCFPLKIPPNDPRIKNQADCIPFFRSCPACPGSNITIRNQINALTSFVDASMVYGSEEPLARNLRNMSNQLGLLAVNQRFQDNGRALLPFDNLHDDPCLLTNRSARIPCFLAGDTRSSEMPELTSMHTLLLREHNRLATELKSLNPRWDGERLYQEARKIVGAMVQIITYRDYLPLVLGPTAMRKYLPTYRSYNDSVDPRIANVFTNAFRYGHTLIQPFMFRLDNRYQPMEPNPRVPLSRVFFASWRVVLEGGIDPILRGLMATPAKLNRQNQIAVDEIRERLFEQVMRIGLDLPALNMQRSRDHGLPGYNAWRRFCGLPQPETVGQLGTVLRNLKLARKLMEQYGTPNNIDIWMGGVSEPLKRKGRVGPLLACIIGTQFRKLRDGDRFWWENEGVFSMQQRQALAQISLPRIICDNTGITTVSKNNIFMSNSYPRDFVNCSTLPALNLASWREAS
Protocol: (§3) MPO-mediated oxidation of LDL. Reaction mixtures contained LDL (0.15 mg/ml), NaNO2 (100 µM), H2O2 (300 µM), MPO (20 nM) and various concentrations of KYC in a potassium phosphate buffer (100 mM, pH 7.4) containing DTPA (100 µM). LDL oxidation was monitored at 234 nm at room temperature on a HP UV/VIS spectrometer. Absorbance traces represent the average of duplicate experiments.
(§4) MPO-mediated LDL Oxidation. Reaction mixtures contained LDL (0.15 mg/mL), NaNO2 (100 µM), H2O2 (100 µM), MPO (20 nM) and increasing concentrations of KYC in a phosphate buffer (100 mM, pH 7.4) containing DTPA (100 µM). Rates of LDL oxidation were monitored at room temperature at 234 nm, the wavelength maximum for conjugated dienes.
(§5) MPO-mediated LDL Conjugated Diene Formation: Reaction mixtures contained LDL (0.15 mg/mL), NaNO2 (100 µM), H2O2 (100 µM), MPO (20 nM) and increasing concentrations of KYC or equimolar concentrations of various compounds in a phosphate buffer (100 mM, pH 7.4) containing DTPA (100 µM). Rates of LDL conjugated diene formation were determined by following changes in absorbance at 234 nm, the wavelength maximum for conjugated dienes, on a UV-Vis spectrophotometer (Agilent Model 8453) at room temperature.

SS/Mcw rat hearts = assay: Ischemia/reperfusion injury in isolated perfused hearts (Langendorff)
Text: Ischemia/Reperfusion (I/R) Injury in Isolated Hearts. Rats used in this study received humane care in compliance with the Guide for the Care and Use of Laboratory Animals, by the National Research Council. Rats were maintained on a low salt (0.4% NaCl) diet with unlimited access to water. Environmental influences were minimized by maintaining rats in identical housing conditions. Dahl S (SS/Mcw male rats at 8 weeks of age were used for this study.
Modified Krebs-Henseleit bicarbonate buffer was prepared containing the following components (in mM): 118.5 NaCl, 25.0 NaHCO3, 4.8 KCl, 1.2 MgSO4·6H2O, and 1.2 KH2PO4 (pH 7.4 when gassed with 95% O2-5% CO2) in which the calcium content was 1.8. Glucose (11.1 mM) was added to the perfusate. Before use, all perfusion fluids were filtered through cellulose acetate membranes with a pore size of 5 µm. To this perfusate, drugs (KAA, KYC) were added as needed. Animals were weighed, and heparin was administered intraperitoneally based on weight (150 IU/kg). Anesthesia was induced with pentobarbital sodium (30 mg/kg ip). Once adequate anesthesia was obtained, the abdomen was opened, and the diaphragm was separated from its chest wall attachments and the pericardium opened. The aorta was clamped and the heart excised. The heart was then immediately transferred to the Langendorff apparatus, and the aorta was cannulated and secured using silk ties. Coronary arteries were perfused at constant pressure (80 mmHg) in a retrograde fashion with Krebs buffer. The heart was immersed in a bath containing Krebs buffer at 37.2 +/- 0.1°C to maintain conditions of normothermia. Left ventricular pressure (LVP) was measured isovolumetrically with a transducer connected to a thin, saline-filled latex balloon inserted into the left ventricle through the mitral valve from an incision in the left atrium.
Drug perfusion. After steady-state levels of function were reached, hearts were perfused with HZ2 (Ac-KYC-NH2) or HZ3 (Ac-KWC-NH2) at 50mg/L for 40 min prior to 35 min global ischemia and 2 hour reperfusion. The protocol for perfusing isolated hearts with or without KWC or scramble peptide KAA is described in Fig. 5A.

NADPH oxidase (NOX) = assay: PMA-stimulated HL-60 cell superoxide formation (SOD-inhibitable cytochrome C reduction); format: cell-based, human; conditions: cytochrome C assay
Protocol: PMA-induced Superoxide Anion Formation. HL-60 cells were cultured in RPMI 1640 medium containing 10 % FCS (passage 20-50). HL-60 cells were harvested by centrifugation (1000 rpm, 10 min), washed 2X with phosphate buffer (10 mM, pH 7.4) with NaCl (138 mM), KCl (2.67 mM), CaCl2 (0.901 mM), MgCl2 (0.493 mM) and glucose (1mg/ml) to remove culture medium. The HL-60 cells (6 x10^6/0.5ml) were re-suspended in DPBS. After stimulation with PMA (10 µM), the HL-60 cells were incubated with cytochrome C (40 µM) with or without superoxide dismutase at 37°C for 30 min. The reaction was stopped by centrifugation. Cytochrome C reduction was measured at 550 nm on a UV-Vis spectrophotometer (Agilent, Model 8453).
PMA-stimulated HL-60 cell O2^•- Formation: HL-60 cells were harvested by centrifugation (1000 rpm, 10 min), washed twice with DPBS with glucose to remove culture medium. The HL-60 cells (1.2 x10^7/ml) were re-suspended in DPBS with glucose. After stimulation with PMA (10 µM), the HL-60 cells were incubated with cytochrome C (40 µM) with or without superoxide dismutase (500 units/mL) at 37 °C for 10 min and then the HL-60 cells were removed by centrifugation. Cytochrome C reduction in supernatants was measured at 550 nm using a UV-Vis spectrophotometer (Agilent, Model 8453).

[3] = Thiol reduction of KYC disulfide (HPLC); format: physicochemical
Text: To confirm that KYC oxidation by MPO yields a simple disulfide, we reduced the product using simple thiols such as glutathione (GSH) and dithiothreitol (DTT).

MPO [4] = molecular target: T1, MPO; assay: MPO-catalyzed HOCl production (taurine/TMB assay); format: biochemical; conditions: 12.5 µM
Protocol: as §1, §2

hypertensive rats = conditions: large doses; cited from earlier work
MPO [5] = assay: MPO-mediated LDL oxidation (conjugated diene formation, absorbance at 234 nm); format: biochemical; conditions: 25 µM; H2O2 100 µM, NaNO2 100 µM, MPO 20 nM
Protocol: as §3, §4, §5

For `CC(=O)N[C@H](CCCCN)C(=O)N[C@H](Cc1ccc(O)cc1)C(=O)N[C@H](CS)C(N)=O` [Ac-(d)K(d)Y(d)C-amide] (Ac-[dK]-[dY]-[dC]-NH2), the “MPO-catalyzed HOCl production, comparison at equimolar concentration” value (MPO [1]; 12.5 µM) was “less effective than KYC”.

In the case of `N[C@@H](CCC(=O)N[C@@H](CS)C(=O)NCC(=O)O)C(=O)O` [GSH, glutathione], the “MPO/H2O2/nitrite-mediated LDL oxidation” value (MPO [2]) is reported as “ineffective for inhibiting LDL oxidation” and the “MPO/H2O2-mediated LDL oxidation” value (MPO [2]) is reported as “inhibited LDL oxidation; also recorded: did not increase LDL oxidation”.

With `CC(=O)N[C@@H](CCCCN)C(=O)N[C@@H](Cc1c[nH]c2ccccc12)C(=O)N[C@@H](CS)C(N)=O` [KWC, Ac-KWC-amide] (Ac-Lys-Trp-Cys-NH2) the “percent recovery of LVDP after I/R injury” value (SS/Mcw rat hearts; perfusion 40 min prior to 35 min global ischemia and 2 hour reperfusion, untreated 37.1±4.3) was 55.3±4.1%, the “left ventricular developed pressure (LVDP) after I/R injury” value (SS/Mcw rat hearts; perfusion 40 min prior to 35 min global ischemia and 2 hour reperfusion, untreated 38±3.9) was 57.3±4.8 mmHg and the “increase of coronary flow rates after perfusion into the hearts” value (SS/Mcw rat hearts; prior to ischemia) was “more than 20%”. For the same compound, the “percent recovery of coronary flow rates after I/R” value (SS/Mcw rat hearts; untreated control 49.6±3.4, p<0.05) was 65.2±4%.

In the case of `CC(=O)N[C@@H](CCCCN)C(=O)N[C@@H](Cc1ccc(O)cc1)C(=O)N[C@@H](CSSC[C@H](NC(=O)[C@H](Cc1ccc(O)cc1)NC(=O)[C@H](CCCCN)NC(C)=O)C(N)=O)C(N)=O` [KYC disulfide] (I: Ac-Lys-Tyr-Cys-NH2 / II: Ac-Lys-Tyr-Cys-NH2; disulfide I:3-II:3), the “O2•- production in PMA-stimulated HL-60 cells” value (NADPH oxidase (NOX)) is reported as “neither KYC nor KYC disulfide have any significant effect; also recorded: Neither KYC nor KYC disulfide had any significant effect”, the “reduction to KYC monomer by GSH” value ([3]; 10 mM GSH, 120 min) is reported as “completely reduced” and the “time to complete reduction to KYC monomer by DTT” value ([3]; DTT 0.5 mM, room temperature) is reported as ≤ 5 min.

With `N[C@@H](Cc1c[nH]c2ccccc12)C(=O)O` [Trp, tryptophan] the “MPO-catalyzed HOCl production, comparison at equimolar concentration” value (MPO [4]) was “effective inhibitor”, the “MPO/H2O2/nitrite-mediated LDL oxidation” value (MPO [2]) was “did not inhibit but actually enhanced LDL oxidation” and the “MPO/H2O2-mediated LDL oxidation” value (MPO [2]) was “increased MPO-mediated LDL oxidation”.

For `N[C@@H](Cc1ccc(O)cc1)C(=O)O` [Tyr, tyrosine], the “MPO-catalyzed HOCl production, comparison at equimolar concentration” value (MPO [4]) was “little, if any effect”, the “MPO-catalyzed HOCl production, comparison at equimolar concentration” value (MPO [4]; listed as Tyrosine) was “little if any effect” and the “MPO/H2O2/nitrite-mediated LDL oxidation” value (MPO [2]) was “accelerated and enhanced LDL oxidation”. For the same compound, the “MPO/H2O2-mediated LDL oxidation” value (MPO [2]) was “increased MPO-mediated LDL oxidation”.

In the case of `COc1ccc2[nH]cc(CCNC(C)=O)c2c1` [melatonin], the “number of apoptotic cells in the vessel wall” value (hypertensive rats) is given as “increased the number of apoptotic cells in the vessel wall”.

For “N-acetyl Lysylphenylalanylcysteine amid [KFC]”, the “reduction of HOCl detected by the taurine/TMB assay” value (MPO [1]; 25 µM) was 35%, the “MPO-catalyzed HOCl production, dose-dependent effects” value (MPO [1]) was “weaker inhibitor of HOCl formation” and the “MPO/H2O2/nitrite-mediated LDL oxidation” value (MPO [5]) was “increased the lag phase and delayed, but did not totally inhibit LDL oxidation”.

For “N-acetyl Lysyltyrosylcyeteine amide [KYS]”, the “MPO-catalyzed HOCl production, dose-dependent effects” value (MPO [1]) was “failed to inhibit; also recorded: not an inhibitor” and the “MPO/H2O2/nitrite-mediated LDL oxidation” value (MPO [5]) was “accelerated LDL oxidation”.
